These are literature values, as cited in paper PMC13603578, “Biopriming with Schizophyllum commune Polysaccharides Modulates Antioxidant and Biochemical Responses in Pisum sativum L. Seedlings” (Antioxidants, 2026).

On the set-up of this series: method as in PMID 26205049. The following applies: under the tested conditions.

As for liquiritigenin, the DPPH radical-scavenging inhibition result is on record as “exceeding 65%”.
